Data as given in patent US9695155B2, “Herbicidal substituted pyrimidinyloxy benzene compounds” (E. I. DU PONT DE NEMOURS AND COMPANY, priority 2013, dated 2017).

Legend:
giant foxtail = test: Test A preemergence; format: in vivo, Setaria faberii
Procedure, shortened: (§1)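 Compounds in non-phytotoxic solvent with surfactant applied as soil spray preemergence, or postemergence to plants 2-10 cm at one- to two-leaf stage, in loam/sand. After approximately 10 days in greenhouse, injury rated visually versus untreated controls, 0 (no effect) to 100 (complete control).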

morningglory = test: Test A preemergence; format: in vivo, Ipomoea spp.
Procedure, shortened: as §1

pigweed = test: Test A preemergence; format: in vivo, Amaranthus retroflexus
Procedure, shortened: as §1

velvetleaf = test: Test A postemergence; format: in vivo, Abutilon theophrasti
Procedure, shortened: as §1

wheat = test: Test A postemergence; format: in vivo, Triticum aestivum
Procedure, shortened: as §1

barnyardgrass = test: Test B flooded paddy test; format: in vivo, Echinochloa crus-galli; conditions: Flood, 250 g ai/ha, 0 to 100 scale where 0 is no effect and 100 is complete control
Procedure, shortened: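 Compound added straight to paddy water, with pots kept flooded 3 cm above soil, on plants grown to the 2-leaf stage. Visual scoring 0-100 (100 = complete control) against untreated controls after 13 to 15 greenhouse days.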

Italian ryegrass = test: Test C preemergence; format: in vivo, Lolium multiflorum
Procedure, shortened: (§2)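 Visual ratings on a 0–100 scale (100 = complete control) were made versus untreated controls after 13–15 greenhouse days. Chemicals in a surfactant-containing non-phytotoxic solvent were applied either preemergence to seeds in loam–sand soil or postemergence to 1- to 4-leaf plants 2–18 cm tall.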

large (Lg) crabgrass = test: Test C preemergence; format: in vivo, Digitaria sanguinalis
Procedure, shortened: as §2

wheat, winter = test: Test C postemergence; format: in vivo, Triticum aestivum
Procedure, shortened: as §2

kochia = test: Test C postemergence; format: in vivo, Kochia scoparia
Procedure, shortened: as §2

wild oat = test: Test C postemergence; format: in vivo, Avena fatua
Procedure, shortened: as §2

chickweed = test: Test C postemergence; format: in vivo, Stellaria media
Procedure, shortened: as §2

[1] = 500 g ai/ha, 0 to 100 scale where 0 is no effect and 100 is complete control
[2] = 125 g ai/ha, 0 to 100 scale where 0 is no effect and 100 is complete control
[3] = 125 g ai/ha, preemergence, scale 0 (no effect) to 100 (complete control)
[4] = 250 g ai/ha, preemergence, scale 0 (no effect) to 100 (complete control)
[5] = Preemergence, 62 g ai/ha, scale 0 to 100, 0 no effect, 100 complete control
[6] = 31 g ai/ha, postemergence, visual rating, scale 0 to 100 (0 no effect, 100 complete control), 13 to 15 days
[7] = 125 g ai/ha, postemergence, visual rating, scale 0 to 100 (0 no effect, 100 complete control)
[8] = Postemergence, 62 g ai/ha, scale 0 to 100 (0 no effect, 100 complete control), 13 to 15 days
[9] = 500 g ai/ha, 0 to 100 scale, 0 no effect, 100 complete control, approx. 10 days
[10] = 62 g ai/ha, preemergence, scale 0 (no effect) to 100 (complete control)
[11] = Preemergence, 31 g ai/ha, scale 0 to 100, 0 no effect, 100 complete control
[12] = Postemergence, 31 g ai/ha, scale 0 to 100 (0 no effect, 100 complete control), 13 to 15 days
[13] = Postemergence, 62 g ai/ha, scale 0 to 100 (0 no effect, 100 complete control)

N#Cc1cnn(-c2c(C#N)cccc2Oc2ncc(Cl)cn2)c1 [Compound 200]
Foxtail, Giant plant response rating (0 to 100 scale) (giant foxtail; 125 g ai/ha): 100
Foxtail, Giant plant response rating (giant foxtail; [1]): 100
Morningglory plant response rating (0 to 100 scale) (morningglory; 125 g ai/ha): 90
Morningglory plant response rating (morningglory; [1]): 100
Pigweed plant response rating (0 to 100 scale) (pigweed; 125 g ai/ha): 100
Pigweed plant response rating (pigweed; [1]): 100
Velvetleaf plant response rating (velvetleaf; [2]): 100
Plant response rating, Velvetleaf (velvetleaf; [1]): 100
Wheat plant response rating (wheat; [2]): 40
Plant response rating, Wheat (wheat; [1]): 60
Plant response rating, Barnyardgrass (barnyardgrass): 20
Ryegrass, Italian plant response rating (Italian ryegrass; [3]): 85
Ryegrass, Italian plant response rating (Italian ryegrass; [4]): 95
Plant response rating, Ryegrass, Italian (Italian ryegrass; [5]): 70
Crabgrass, Large plant response rating (large (Lg) crabgrass; [3]): 100
Crabgrass, Large plant response rating (large (Lg) crabgrass; [4]): 100
Plant response rating, Crabgrass, Large (large (Lg) crabgrass; [5]): 100
Wheat plant response rating (wheat, winter; [6]): 0
Plant response rating, Wheat (wheat, winter; [7]): 5
Plant response rating (0 to 100), Wheat (wheat, winter; 250 g ai/ha, postemergence): 5
Plant response rating, Wheat (wheat, winter; [8]): 0
Kochia plant response rating (kochia; [6]): 80
Plant response rating, Kochia (kochia; [7]): 98
Plant response rating (0 to 100), Kochia (kochia; 250 g ai/ha, postemergence): 100
Plant response rating, Kochia (kochia; [8]): 95
Oat, Wild plant response rating (wild oat; [6]): 15
Plant response rating, Oat, Wild (wild oat; [7]): 25
Plant response rating (0 to 100), Oat, Wild (wild oat; 250 g ai/ha, postemergence): 20
Plant response rating, Oat, Wild (wild oat; [8]): 15
Chickweed plant response rating (chickweed; [6]): 55
Plant response rating, Chickweed (chickweed; [7]): 95
Plant response rating (0 to 100), Chickweed (chickweed; 250 g ai/ha, postemergence): 98
Plant response rating, Chickweed (chickweed; [8]): 75

N#Cc1cccc(Oc2ncc(Cl)cn2)c1-n1cc(Cl)cn1 [Compound 72]
Plant response rating, Foxtail, Giant (giant foxtail; [2]): 100
Foxtail, Giant plant response rating (giant foxtail; [9]): 100
Plant response rating, Morningglory (morningglory; [2]): 80
Morningglory plant response rating (morningglory; [9]): 100
Plant response rating, Pigweed (pigweed; [2]): 100
Pigweed plant response rating (pigweed; [9]): 100
Plant response rating, Velvetleaf (velvetleaf; [2]): 100
Plant response rating, Velvetleaf (velvetleaf; [1]): 100
Plant response rating, Wheat (wheat; [2]): 20
Plant response rating, Wheat (wheat; [1]): 50
Plant response rating, Barnyardgrass (barnyardgrass): 0
Ryegrass, Italian plant response rating (Italian ryegrass; [10]): 10
Ryegrass, Italian plant response rating (Italian ryegrass; [3]): 40
Ryegrass, Italian plant response rating (Italian ryegrass; [4]): 80
Plant response rating, Ryegrass, Italian (Italian ryegrass; [11]): 5
Crabgrass, Large plant response rating (large (Lg) crabgrass; [10]): 100
Crabgrass, Large plant response rating (large (Lg) crabgrass; [3]): 100
Crabgrass, Large plant response rating (large (Lg) crabgrass; [4]): 100
Plant response rating, Crabgrass, Large (large (Lg) crabgrass; [11]): 100
Plant response rating (0 to 100), Wheat (wheat, winter; 125 g ai/ha, postemergence): 0
Plant response rating (0 to 100), Wheat (wheat, winter; 250 g ai/ha, postemergence): 5
Plant response rating, Wheat (wheat, winter; [12]): 0
Plant response rating, Wheat (wheat, winter; [13]): 0
Plant response rating (0 to 100), Kochia (kochia; 125 g ai/ha, postemergence): 95
Plant response rating (0 to 100), Kochia (kochia; 250 g ai/ha, postemergence): 95
Plant response rating, Kochia (kochia; [12]): 90
Plant response rating, Kochia (kochia; [13]): 90
Plant response rating (0 to 100), Oat, Wild (wild oat; 125 g ai/ha, postemergence): 30
Plant response rating (0 to 100), Oat, Wild (wild oat; 250 g ai/ha, postemergence): 35
Plant response rating, Oat, Wild (wild oat; [12]): 5
Plant response rating, Oat, Wild (wild oat; [13]): 5
Plant response rating (0 to 100), Chickweed (chickweed; 125 g ai/ha, postemergence): 80
Plant response rating (0 to 100), Chickweed (chickweed; 250 g ai/ha, postemergence): 80
Plant response rating, Chickweed (chickweed; [12]): 50
Plant response rating, Chickweed (chickweed; [13]): 65

N#Cc1cccc(Oc2ncc(Cl)cn2)c1-n1cc(OCC(F)(F)F)cn1 [Compound 274, 3-[(5-chloro-2-pyrimidinyl)oxy]-2-[4-(2,2,2-trifluoroethoxy)-1H-pyrazol-1-yl]benzonitrile]
Foxtail, Giant plant response rating (0 to 100 scale) (giant foxtail; 125 g ai/ha): 100
pest or weed control at 500 g/ha (giant foxtail; Setaria faberi, pre-emergence, 240 h, 500 g ai/ha, 0 to 100 scale where 0 is no effect and 100 is complete control, read-out: Foxtail, Giant plant response rating): 100%
Morningglory plant response rating (0 to 100 scale) (morningglory; 125 g ai/ha): 100
pest or weed control at 500 g/ha (morningglory; Ipomoea, pre-emergence, 240 h, 500 g ai/ha, 0 to 100 scale where 0 is no effect and 100 is complete control, read-out: Morningglory plant response rating): 100%
Pigweed plant response rating (0 to 100 scale) (pigweed; 125 g ai/ha): 100
pest or weed control at 500 g/ha (pigweed; Amaranthus retroflexus, pre-emergence, 240 h, 500 g ai/ha, 0 to 100 scale where 0 is no effect and 100 is complete control, read-out: Pigweed plant response rating): 100%
pest or weed control at 125 g/ha (velvetleaf; Abutilon theophrasti, post-emergence, 240 h, 125 g ai/ha, 0 to 100 scale, 0 no effect, 100 complete control, read-out: Plant response rating, Velvetleaf): 100%
pest or weed control at 500 g/ha (velvetleaf; Abutilon theophrasti, post-emergence, 240 h, 500 g ai/ha, 0 to 100 scale where 0 is no effect and 100 is complete control, read-out: Plant response rating, Velvetleaf): 100%
plant injury at 125 g/ha (wheat; Triticum aestivum, post-emergence, 240 h, 125 g ai/ha, 0 to 100 scale, 0 no effect, 100 complete control, read-out: Plant response rating, Wheat): 70%
plant injury at 500 g/ha (wheat; Triticum aestivum, post-emergence, 240 h, 500 g ai/ha, 0 to 100 scale where 0 is no effect and 100 is complete control, read-out: Plant response rating, Wheat): 80%
pest or weed control at 250 g/ha (barnyardgrass; Echinochloa crus-galli, read-out: Plant response rating, Barnyardgrass): 65%
pest or weed control at 16 g/ha (Italian ryegrass; Lolium multiflorum, pre-emergence, 16 g ai/ha, preemergence, scale 0 to 100 (0 no effect, 100 complete control), read-out: Ryegrass, Italian plant response rating): 25%
pest or weed control at 125 g/ha (Italian ryegrass; Lolium multiflorum, pre-emergence, 125 g ai/ha, preemergence, scale 0 (no effect) to 100 (complete control), read-out: Ryegrass, Italian plant response rating): 90%
pest or weed control at 62 g/ha (Italian ryegrass; Lolium multiflorum, pre-emergence, Preemergence, 62 g ai/ha, scale 0 to 100, 0 no effect, 100 complete control, read-out: Plant response rating, Ryegrass, Italian): 90%
pest or weed control at 16 g/ha (large (Lg) crabgrass; Digitaria sanguinalis, pre-emergence, 16 g ai/ha, preemergence, scale 0 to 100 (0 no effect, 100 complete control), read-out: Crabgrass, Large plant response rating): 100%
pest or weed control at 125 g/ha (large (Lg) crabgrass; Digitaria sanguinalis, pre-emergence, 125 g ai/ha, preemergence, scale 0 (no effect) to 100 (complete control), read-out: Crabgrass, Large plant response rating): 100%
pest or weed control at 62 g/ha (large (Lg) crabgrass; Digitaria sanguinalis, pre-emergence, Preemergence, 62 g ai/ha, scale 0 to 100, 0 no effect, 100 complete control, read-out: Plant response rating, Crabgrass, Large): 100%
Wheat plant response rating (wheat, winter; [6]): 5
plant injury at 16 g/ha (wheat, winter; Triticum aestivum, post-emergence, 16 g ai/ha, postemergence, 0 is no effect, 100 is complete control, read-out: Plant response rating (0 to 100), Wheat): 5%
plant injury at 125 g/ha (wheat, winter; Triticum aestivum, post-emergence, 125 g ai/ha, postemergence, visual rating, scale 0 to 100 (0 no effect, 100 complete control), read-out: Plant response rating, Wheat): 15%
plant injury at 62 g/ha (wheat, winter; Triticum aestivum, post-emergence, Postemergence, 62 g ai/ha, scale 0 to 100 (0 no effect, 100 complete control), 13 to 15 days, read-out: Plant response rating, Wheat): 5%
pest or weed control at 16 g/ha (kochia; Bassia scoparia, post-emergence, 16 g ai/ha, postemergence, 0 is no effect, 100 is complete control, read-out: Plant response rating (0 to 100), Kochia): 85%
pest or weed control at 31 g/ha (kochia; Bassia scoparia, post-emergence, 31 g ai/ha, postemergence, visual rating, scale 0 to 100 (0 no effect, 100 complete control), 13 to 15 days, read-out: Kochia plant response rating): 90%
pest or weed control at 125 g/ha (kochia; Bassia scoparia, post-emergence, 125 g ai/ha, postemergence, visual rating, scale 0 to 100 (0 no effect, 100 complete control), read-out: Plant response rating, Kochia): 100%
pest or weed control at 62 g/ha (kochia; Bassia scoparia, post-emergence, Postemergence, 62 g ai/ha, scale 0 to 100 (0 no effect, 100 complete control), 13 to 15 days, read-out: Plant response rating, Kochia): 100%
pest or weed control at 16 g/ha (wild oat; Avena fatua, post-emergence, 16 g ai/ha, postemergence, 0 is no effect, 100 is complete control, read-out: Plant response rating (0 to 100), Oat, Wild): 30%
pest or weed control at 125 g/ha (wild oat; Avena fatua, post-emergence, 125 g ai/ha, postemergence, visual rating, scale 0 to 100 (0 no effect, 100 complete control), read-out: Plant response rating, Oat, Wild): 30%
pest or weed control at 62 g/ha (wild oat; Avena fatua, post-emergence, Postemergence, 62 g ai/ha, scale 0 to 100 (0 no effect, 100 complete control), 13 to 15 days, read-out: Plant response rating, Oat, Wild): 35%
pest or weed control at 16 g/ha (chickweed; Stellaria media, post-emergence, 16 g ai/ha, postemergence, 0 is no effect, 100 is complete control, read-out: Plant response rating (0 to 100), Chickweed): 70%
pest or weed control at 31 g/ha (chickweed; Stellaria media, post-emergence, 31 g ai/ha, postemergence, visual rating, scale 0 to 100 (0 no effect, 100 complete control), 13 to 15 days, read-out: Chickweed plant response rating): 70%
pest or weed control at 125 g/ha (chickweed; Stellaria media, post-emergence, 125 g ai/ha, postemergence, visual rating, scale 0 to 100 (0 no effect, 100 complete control), read-out: Plant response rating, Chickweed): 98%
pest or weed control at 62 g/ha (chickweed; Stellaria media, post-emergence, Postemergence, 62 g ai/ha, scale 0 to 100 (0 no effect, 100 complete control), 13 to 15 days, read-out: Plant response rating, Chickweed): 90%
